The source of these data is ChEMBL document CHEMBL5214883, “Comprehensive review for anticancer hybridized multitargeting HDAC inhibitors” (Eur J Med Chem, 2021).

Assay [1] deals with T1, Protein deacetylase HDAC6 (Homo sapiens, UniProt Q9UBN7).
T1 sequence (Q9UBN7 whole entry): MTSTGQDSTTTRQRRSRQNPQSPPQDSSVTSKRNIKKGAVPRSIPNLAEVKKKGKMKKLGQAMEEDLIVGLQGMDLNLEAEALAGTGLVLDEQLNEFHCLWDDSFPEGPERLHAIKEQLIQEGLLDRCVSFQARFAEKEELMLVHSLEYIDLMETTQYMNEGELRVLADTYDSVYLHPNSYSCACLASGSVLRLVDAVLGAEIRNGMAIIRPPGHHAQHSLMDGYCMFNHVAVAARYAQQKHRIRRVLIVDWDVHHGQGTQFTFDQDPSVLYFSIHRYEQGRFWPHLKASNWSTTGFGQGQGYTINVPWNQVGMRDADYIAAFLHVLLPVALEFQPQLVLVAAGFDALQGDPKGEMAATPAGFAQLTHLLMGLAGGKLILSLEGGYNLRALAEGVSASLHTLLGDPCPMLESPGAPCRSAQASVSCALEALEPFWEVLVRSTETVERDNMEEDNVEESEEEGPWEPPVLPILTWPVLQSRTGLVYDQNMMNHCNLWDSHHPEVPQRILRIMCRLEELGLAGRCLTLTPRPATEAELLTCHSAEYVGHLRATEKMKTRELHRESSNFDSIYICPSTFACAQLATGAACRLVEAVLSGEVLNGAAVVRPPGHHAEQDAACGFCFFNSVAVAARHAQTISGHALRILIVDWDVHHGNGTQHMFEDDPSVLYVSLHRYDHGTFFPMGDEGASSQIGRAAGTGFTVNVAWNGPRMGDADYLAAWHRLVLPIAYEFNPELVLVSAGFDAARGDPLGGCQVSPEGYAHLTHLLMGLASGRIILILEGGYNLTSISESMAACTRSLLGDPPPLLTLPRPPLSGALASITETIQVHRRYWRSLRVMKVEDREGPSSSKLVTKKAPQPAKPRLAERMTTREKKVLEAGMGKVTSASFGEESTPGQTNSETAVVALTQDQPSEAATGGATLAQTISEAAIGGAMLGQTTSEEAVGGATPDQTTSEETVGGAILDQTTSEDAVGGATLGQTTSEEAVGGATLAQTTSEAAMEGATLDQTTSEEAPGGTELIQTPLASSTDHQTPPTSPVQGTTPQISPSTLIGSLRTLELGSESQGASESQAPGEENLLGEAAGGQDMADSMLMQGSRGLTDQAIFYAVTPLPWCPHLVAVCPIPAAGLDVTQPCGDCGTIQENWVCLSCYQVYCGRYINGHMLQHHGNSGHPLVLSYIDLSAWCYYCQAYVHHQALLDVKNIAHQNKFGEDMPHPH
Kind of assay: Inhibition of HDAC6 (unknown origin).

For a further assay, the target named is Histone deacetylase 8 (Homo sapiens, UniProt Q9BY41). Kind of assay: Inhibition of HDAC8 (unknown origin).
Histone deacetylase 8, sequence (Q9BY41 whole entry): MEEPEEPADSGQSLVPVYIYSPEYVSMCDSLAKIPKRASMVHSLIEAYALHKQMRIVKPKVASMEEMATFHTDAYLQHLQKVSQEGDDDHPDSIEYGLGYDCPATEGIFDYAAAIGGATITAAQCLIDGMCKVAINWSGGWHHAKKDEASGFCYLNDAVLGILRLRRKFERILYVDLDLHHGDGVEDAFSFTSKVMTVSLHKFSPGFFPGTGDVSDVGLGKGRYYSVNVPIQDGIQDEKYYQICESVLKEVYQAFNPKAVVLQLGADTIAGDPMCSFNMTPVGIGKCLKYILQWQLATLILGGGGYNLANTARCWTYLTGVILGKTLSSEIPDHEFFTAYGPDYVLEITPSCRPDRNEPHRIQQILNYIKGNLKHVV
Another assay has as its target Histone deacetylase 1 (Homo sapiens, UniProt Q13547). Kind of assay: Inhibition of HDAC1 (unknown origin).
The target in another assay is Bcr/Abl fusion protein (Homo sapiens, UniProt P00519). Kind of assay: Inhibition of Bcr-Abl (unknown origin). It is filed as protein assay.
Another assay has as its system K562. Kind of assay: Cytotoxicity against human K562 cells.
The next assay relates to DU-145. Kind of assay: Cytotoxicity against human DU-145 cells.
Assay [2] addresses T2, Receptor tyrosine-protein kinase erbB-2 (Homo sapiens, UniProt P04626). Kind of assay: Inhibition of HER2 (unknown origin) at 10 ug/ml using synthetic biotinylated peptide as substrate by Wallac Victor II 1420 microplate reader method relative to control. The note with it: dose 10.0 µg/ml.
Assay [3] relates to Panel NCI-60 (60 carcinoma cell lines). Kind of assay: Cytotoxicity against human Panel NCI-60 (60 carcinoma cell lines). It is filed as functional, cell-based.
For the next assay, the system named is HCT-116. Kind of assay: In vivo antitumor activity against human HCT-116 cells xenografted in BALB/c nude mouse assessed as tumor growth inhibition at 150 mg/kg, po relative to control. It is filed as functional. The settings on record: read-out: TGI. (In xenograft studies the graft and the host belong to different species.)
Assay [4] has as its target Inhibitor of nuclear factor kappa-B kinase subunit alpha (Homo sapiens) (UniProt O15111). Kind of assay: Inhibition of IKKa (unknown origin) at 1 uM relative to control.
The target in assay [5] is Ribosomal protein S6 kinase alpha-5 (Homo sapiens) (UniProt O75582). Kind of assay: Inhibition of MSK1 (unknown origin) at 1 uM relative to control.
Ribosomal protein S6 kinase alpha-5 (Homo sapiens), sequence (O75582 whole entry, looked up): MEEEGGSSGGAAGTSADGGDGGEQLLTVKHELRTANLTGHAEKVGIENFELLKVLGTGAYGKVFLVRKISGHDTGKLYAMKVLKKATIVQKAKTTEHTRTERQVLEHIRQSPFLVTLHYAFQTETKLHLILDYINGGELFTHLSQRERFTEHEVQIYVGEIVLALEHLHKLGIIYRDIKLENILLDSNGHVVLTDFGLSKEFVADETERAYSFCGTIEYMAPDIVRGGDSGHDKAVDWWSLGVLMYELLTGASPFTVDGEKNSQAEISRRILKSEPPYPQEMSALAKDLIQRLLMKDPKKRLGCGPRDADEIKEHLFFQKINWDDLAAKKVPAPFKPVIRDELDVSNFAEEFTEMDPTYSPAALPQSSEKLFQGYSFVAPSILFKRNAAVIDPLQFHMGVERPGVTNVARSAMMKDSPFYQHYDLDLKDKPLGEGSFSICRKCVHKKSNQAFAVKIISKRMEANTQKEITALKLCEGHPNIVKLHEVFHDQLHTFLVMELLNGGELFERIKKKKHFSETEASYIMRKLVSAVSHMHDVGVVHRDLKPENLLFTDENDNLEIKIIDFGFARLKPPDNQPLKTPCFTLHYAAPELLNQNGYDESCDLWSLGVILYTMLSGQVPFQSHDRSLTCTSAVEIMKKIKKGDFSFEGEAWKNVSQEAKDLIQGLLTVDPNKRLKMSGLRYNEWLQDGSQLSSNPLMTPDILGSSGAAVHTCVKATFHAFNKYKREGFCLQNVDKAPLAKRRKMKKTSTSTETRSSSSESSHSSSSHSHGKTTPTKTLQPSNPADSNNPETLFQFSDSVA
Assay [6] has as its target Epidermal growth factor receptor (Homo sapiens, UniProt P00533). Kind of assay: Inhibition of EGFR (unknown origin).
Assay [7] has as its target T2, Receptor tyrosine-protein kinase erbB-2. Kind of assay: Inhibition of HER2 (unknown origin).
Assay [8] in a line: Cytotoxicity against human WM983B cells. It is filed as functional, cell-based.
Assay [9] is described as follows: Antiproliferative activity against non-small cell lung cancer cell line (unknown origin).
The nature of assay [10]: Antiproliferative activity against breast cancer cell line (unknown origin).
For another assay, the target named is Histone deacetylase 3 (Homo sapiens, UniProt O15379). Kind of assay: Inhibition of HDAC3 (unknown origin).
The target of assay [11] is Polyamine deacetylase HDAC10 (Homo sapiens, UniProt Q969S8). Kind of assay: Inhibition of HDAC10 (unknown origin).
Assay [12] has as its target Cyclin-dependent kinase 4 (Homo sapiens, UniProt P11802). Kind of assay: Inhibition of Cdk4 (unknown origin).
The subject of the next assay is CAPAN-1. Kind of assay: Antitumor activity against human CAPAN-1 cells xenografted in mouse assessed tumor growth inhibition at 20 mg/kg, ip, bid relative to control. It is filed as functional. The note with it: read-out: TGI.
Assay [13] addresses T1, Protein deacetylase HDAC6. Kind of assay: Inhibition of HDAC-6 (unknown origin) expressed in Escherichia coli BL21 (DE3) in HeLa nuclear extract using Boc-Lys(TFA)-AMC as substrate preincubated for 5 mins followed by substrate addition measured after 30 mins […].
The subject of a further assay is SMMC-7721. Kind of assay: Cytotoxicity against human SMMC-7721 cells. It is filed as functional, cell-based.

Histone deacetylase 1, sequence (Q13547 whole entry, the tested form may be a part): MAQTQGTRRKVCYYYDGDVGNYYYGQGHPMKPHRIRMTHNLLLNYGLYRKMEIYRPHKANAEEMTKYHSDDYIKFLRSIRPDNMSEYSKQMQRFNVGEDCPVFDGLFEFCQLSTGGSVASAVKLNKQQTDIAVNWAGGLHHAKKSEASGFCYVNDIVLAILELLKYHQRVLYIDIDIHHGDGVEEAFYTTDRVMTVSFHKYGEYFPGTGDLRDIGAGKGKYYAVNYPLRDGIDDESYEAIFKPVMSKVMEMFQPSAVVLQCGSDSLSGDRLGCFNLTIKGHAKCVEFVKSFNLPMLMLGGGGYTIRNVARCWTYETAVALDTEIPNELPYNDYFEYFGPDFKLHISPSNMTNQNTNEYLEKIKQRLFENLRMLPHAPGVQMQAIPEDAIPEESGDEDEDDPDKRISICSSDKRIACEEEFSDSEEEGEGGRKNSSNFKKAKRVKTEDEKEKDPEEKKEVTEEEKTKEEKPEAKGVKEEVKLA
T2 sequence (P04626 whole entry): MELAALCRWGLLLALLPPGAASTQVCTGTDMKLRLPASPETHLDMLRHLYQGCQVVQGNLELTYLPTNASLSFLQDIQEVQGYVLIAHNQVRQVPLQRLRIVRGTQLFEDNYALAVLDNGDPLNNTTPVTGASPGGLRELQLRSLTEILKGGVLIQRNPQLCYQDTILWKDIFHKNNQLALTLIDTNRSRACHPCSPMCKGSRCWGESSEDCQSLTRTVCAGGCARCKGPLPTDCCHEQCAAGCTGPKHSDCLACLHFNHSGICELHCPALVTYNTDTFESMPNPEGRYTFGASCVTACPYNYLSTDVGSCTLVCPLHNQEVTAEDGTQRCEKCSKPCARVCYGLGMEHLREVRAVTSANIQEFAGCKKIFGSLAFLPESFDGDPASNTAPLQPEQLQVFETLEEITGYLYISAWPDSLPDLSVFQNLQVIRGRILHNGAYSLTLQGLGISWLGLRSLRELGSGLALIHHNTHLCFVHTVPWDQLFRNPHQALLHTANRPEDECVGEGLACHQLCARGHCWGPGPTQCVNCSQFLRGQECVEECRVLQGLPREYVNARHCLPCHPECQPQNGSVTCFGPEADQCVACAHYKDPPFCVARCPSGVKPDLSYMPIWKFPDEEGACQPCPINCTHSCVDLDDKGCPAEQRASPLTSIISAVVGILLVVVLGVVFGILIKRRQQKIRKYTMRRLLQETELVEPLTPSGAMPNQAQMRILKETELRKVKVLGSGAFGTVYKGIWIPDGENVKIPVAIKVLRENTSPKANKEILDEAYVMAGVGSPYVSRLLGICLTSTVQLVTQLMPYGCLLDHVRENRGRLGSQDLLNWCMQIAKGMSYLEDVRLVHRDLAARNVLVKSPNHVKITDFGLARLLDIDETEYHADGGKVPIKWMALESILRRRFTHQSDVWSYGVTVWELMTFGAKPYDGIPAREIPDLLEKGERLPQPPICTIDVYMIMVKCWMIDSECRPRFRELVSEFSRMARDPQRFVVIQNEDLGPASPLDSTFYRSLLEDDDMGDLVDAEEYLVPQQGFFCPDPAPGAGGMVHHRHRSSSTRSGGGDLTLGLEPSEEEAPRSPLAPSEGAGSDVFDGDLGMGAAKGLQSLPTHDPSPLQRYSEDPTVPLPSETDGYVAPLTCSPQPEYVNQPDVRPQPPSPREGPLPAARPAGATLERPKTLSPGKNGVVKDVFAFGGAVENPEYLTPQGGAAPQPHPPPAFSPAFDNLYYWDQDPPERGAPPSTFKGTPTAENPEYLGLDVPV
Inhibitor of nuclear factor kappa-B kinase subunit alpha (Homo sapiens), sequence (O15111 whole entry): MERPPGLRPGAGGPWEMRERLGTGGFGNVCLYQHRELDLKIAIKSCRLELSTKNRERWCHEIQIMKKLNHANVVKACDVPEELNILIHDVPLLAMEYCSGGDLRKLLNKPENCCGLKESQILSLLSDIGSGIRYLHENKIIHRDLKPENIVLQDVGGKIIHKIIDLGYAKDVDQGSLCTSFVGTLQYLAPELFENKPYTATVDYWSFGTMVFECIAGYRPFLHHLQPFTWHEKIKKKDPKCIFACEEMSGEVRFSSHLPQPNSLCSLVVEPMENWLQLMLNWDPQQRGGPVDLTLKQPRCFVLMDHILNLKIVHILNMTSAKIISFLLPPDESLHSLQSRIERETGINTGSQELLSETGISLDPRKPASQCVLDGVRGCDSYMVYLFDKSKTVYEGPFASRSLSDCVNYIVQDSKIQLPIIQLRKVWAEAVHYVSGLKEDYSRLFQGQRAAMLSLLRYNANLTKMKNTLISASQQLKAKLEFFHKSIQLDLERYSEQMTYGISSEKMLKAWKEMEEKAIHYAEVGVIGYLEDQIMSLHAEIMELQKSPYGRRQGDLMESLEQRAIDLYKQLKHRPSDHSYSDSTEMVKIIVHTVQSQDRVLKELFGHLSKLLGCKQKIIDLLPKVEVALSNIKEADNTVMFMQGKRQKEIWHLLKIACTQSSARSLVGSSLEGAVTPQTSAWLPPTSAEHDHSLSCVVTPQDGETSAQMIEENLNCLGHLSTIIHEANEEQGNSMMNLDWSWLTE
Epidermal growth factor receptor, sequence (P00533 whole entry): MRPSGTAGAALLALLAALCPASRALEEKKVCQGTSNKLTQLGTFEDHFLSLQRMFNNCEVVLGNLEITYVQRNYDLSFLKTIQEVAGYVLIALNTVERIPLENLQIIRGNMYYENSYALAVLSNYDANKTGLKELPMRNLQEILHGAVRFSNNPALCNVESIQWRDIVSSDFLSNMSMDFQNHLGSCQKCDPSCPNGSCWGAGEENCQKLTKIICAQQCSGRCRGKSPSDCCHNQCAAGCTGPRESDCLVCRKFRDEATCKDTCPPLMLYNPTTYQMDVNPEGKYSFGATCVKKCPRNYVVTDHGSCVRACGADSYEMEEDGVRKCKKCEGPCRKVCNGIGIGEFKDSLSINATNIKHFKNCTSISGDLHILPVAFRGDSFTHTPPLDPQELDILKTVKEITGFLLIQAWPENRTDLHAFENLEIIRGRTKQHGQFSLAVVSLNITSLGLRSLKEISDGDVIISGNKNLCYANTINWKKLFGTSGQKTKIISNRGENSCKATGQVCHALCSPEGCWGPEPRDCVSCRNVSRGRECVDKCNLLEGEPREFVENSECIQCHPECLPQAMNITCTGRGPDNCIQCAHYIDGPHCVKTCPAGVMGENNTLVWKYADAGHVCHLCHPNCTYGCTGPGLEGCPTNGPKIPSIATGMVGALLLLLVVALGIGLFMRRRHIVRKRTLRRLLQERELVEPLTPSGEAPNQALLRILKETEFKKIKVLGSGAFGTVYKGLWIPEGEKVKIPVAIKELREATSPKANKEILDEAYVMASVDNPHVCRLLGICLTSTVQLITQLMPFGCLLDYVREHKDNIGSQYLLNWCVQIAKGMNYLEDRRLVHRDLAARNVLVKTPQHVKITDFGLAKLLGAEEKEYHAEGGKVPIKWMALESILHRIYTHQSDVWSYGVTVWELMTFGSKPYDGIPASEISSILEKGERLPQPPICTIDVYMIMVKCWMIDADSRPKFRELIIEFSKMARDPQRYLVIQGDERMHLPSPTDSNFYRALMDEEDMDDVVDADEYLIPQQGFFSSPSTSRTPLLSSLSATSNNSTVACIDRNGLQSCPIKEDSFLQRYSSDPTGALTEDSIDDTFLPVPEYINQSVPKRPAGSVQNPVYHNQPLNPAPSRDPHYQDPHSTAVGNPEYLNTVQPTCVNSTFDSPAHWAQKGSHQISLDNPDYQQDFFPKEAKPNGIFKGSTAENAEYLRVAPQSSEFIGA

`CN(CCOc1no[n+]([O-])c1S(=O)(=O)c1ccccc1)C(=O)c1ccc(/C=C/C(=O)NO)cc1`: the 50% inhibitory concentration (IC50) worked out at 160 nM in assay [1] and 260 nM at Histone deacetylase 8.

As for `CCN1CCN(c2cc(Nc3ncc(C(=O)Nc4ccccc4N)s3)nc(C)n2)CC1`, the IC50 against Histone deacetylase 1 turned out to be 150 nM; against Bcr/Abl fusion protein it was 21200 nM; in the assay with K562, 2560 nM; with DU-145, 5790 nM.

As to `COCCOc1cc2ncnc(Nc3ccc(/C=C/C(=O)NO)cc3)c2cc1OCCOC`, the inhibition in [2] stood at 64.2%.

`Cn1c(CCCC(=O)O)nc2cc(N(CCCl)CCCl)ccc21` [BENDAMUSTINE] registered a 50% inhibitory concentration (IC50) in assay [3] of 77 nM.

As for `CN1c2ccccc2C(=O)N2[C@H](C(=O)Nc3ccc(C(=O)Nc4ccccc4N)cc3)Cc3c([nH]c4ccccc34)[C@@H]12`, the inhibition in vivo at 150 mg/kg with HCT-116 was found to be 75.2%.

Turning to `CCN1CCN(Cc2ccc(Nc3ncc(F)c(-c4cc(F)c5nc(C)n(C(C)C)c5c4)n3)nc2)CC1`, the inhibition in assay [4] was 80%; in assay [5], 1%.

Take `C#Cc1cccc(Nc2ncnc3ccc(S(=O)(=O)n4ccc(/C=C/C(=O)Nc5ccccc5N)c4)cc23)c1`: the concentration for half-maximal inhibition (IC50) on Histone deacetylase 1 came to 41 nM; in assay [6], 78 nM; in assay [7], 66 nM.

On to `Nc1ccccc1NC(=O)c1ccc(CCCC(=O)Nc2ccc(C3CC3N)cc2)cc1` (configuration not stated), for which the IC50 in assay [8] was determined as 200 nM.

On to `Cc1nc2c(F)cc(-c3nc(Nc4ccc(CNC(=O)CC(=O)NO)cc4)ncc3F)cc2n1C(C)C`, for which the IC50 was 26 nM against Histone deacetylase 1; 5.9 nM in assay [1]; 18.3 nM in assay [9]; 18.3 nM in assay [10]; 56 nM against Histone deacetylase 3; 73 nM in assay [11]. For the same molecule, the IC50 in [12] was determined as 1.2 nM.

Turning to `Cc1sc2c(c1C)C(c1ccc(Cl)cc1)=N[C@@H](CC(=O)Nc1ccc(C(=O)NO)cc1)c1nnc(C)n1-2`, the inhibition in vivo at 20 mg/kg in the assay on CAPAN-1 worked out at 87.7%.

As to `O=C(CCCCCNC(=O)c1cccc2cc3ccccc3nc12)NO`, the IC50 in [13] came out at 2.3 nM.

In turn, `CC(C)=CCC/C(C)=C\CC/C(C)=C\CSc1ccccc1C(=O)O` had an IC50 with SMMC-7721 of 66000 nM.

Regarding `Cn1c(CCCCCCC(=O)NO)nc2cc(N(CCCl)CCCl)ccc21` [TINOSTAMUSTINE], the IC50 was found to be 10 nM on Histone deacetylase 1 and 2200 nM in assay [3].

The term IC50 denotes the concentration at which inhibition is half-maximal. Low readings indicate greater potency, high ones weaker potency. Usually inhibition stands for the relative decrease from the control value, in per cent. A higher inhibition goes with strong suppression.
